Experimental findings from US20100022534A1, “2-BENZIMIDAZOLYL-6-MORPHOLINO-4- (AZETIDINE, PYRROLIDINE, PIPERIDINE OR AZEPINE) PYRIMIDINE DERIVATIVES AS PI3K AND MTOR INHIBITORS FOR THE TREATMENT OF PROLIFERATIVE DISORDERS” (AstraZeneca, priority 2006, published 2010) are described below.

The target in assay [1] is T1, p110α Type Ia human PI3K (Homo sapiens, UniProt P42336).
T1 construct: full length DNA of each of the p110α, p110β and p110δ Type Ia human PI3K p110 isoforms; 6-His; made in house
T1 sequence (P42336 whole entry, canonical isoform): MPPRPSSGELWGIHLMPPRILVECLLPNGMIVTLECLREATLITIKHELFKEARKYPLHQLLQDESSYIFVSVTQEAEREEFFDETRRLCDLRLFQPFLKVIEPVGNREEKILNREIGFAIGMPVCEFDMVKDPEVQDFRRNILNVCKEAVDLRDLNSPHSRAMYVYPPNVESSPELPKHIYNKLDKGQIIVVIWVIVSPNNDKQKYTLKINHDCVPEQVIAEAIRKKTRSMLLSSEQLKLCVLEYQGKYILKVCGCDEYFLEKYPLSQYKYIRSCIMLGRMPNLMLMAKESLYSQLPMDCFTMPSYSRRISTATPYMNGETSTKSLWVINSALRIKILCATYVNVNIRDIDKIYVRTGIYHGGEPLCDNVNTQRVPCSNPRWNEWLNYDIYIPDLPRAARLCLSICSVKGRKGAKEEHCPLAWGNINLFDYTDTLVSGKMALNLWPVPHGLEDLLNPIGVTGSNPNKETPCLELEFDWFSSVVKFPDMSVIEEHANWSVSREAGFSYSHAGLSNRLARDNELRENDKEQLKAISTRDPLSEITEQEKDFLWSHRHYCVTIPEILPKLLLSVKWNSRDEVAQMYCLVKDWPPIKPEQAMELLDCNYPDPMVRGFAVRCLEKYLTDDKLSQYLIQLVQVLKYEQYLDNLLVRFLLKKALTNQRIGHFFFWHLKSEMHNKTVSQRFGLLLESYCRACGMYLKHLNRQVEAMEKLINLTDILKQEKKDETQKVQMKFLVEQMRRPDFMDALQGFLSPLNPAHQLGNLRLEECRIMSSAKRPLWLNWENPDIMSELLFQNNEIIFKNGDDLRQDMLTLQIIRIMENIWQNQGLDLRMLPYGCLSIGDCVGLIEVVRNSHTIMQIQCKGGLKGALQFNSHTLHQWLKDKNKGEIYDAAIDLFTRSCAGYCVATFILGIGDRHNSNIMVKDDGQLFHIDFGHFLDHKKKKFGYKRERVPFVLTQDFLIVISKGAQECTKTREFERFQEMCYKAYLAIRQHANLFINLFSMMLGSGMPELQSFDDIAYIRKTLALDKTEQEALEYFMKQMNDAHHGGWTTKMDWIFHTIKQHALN
T1 sequence (P27986 whole entry partner, canonical isoform): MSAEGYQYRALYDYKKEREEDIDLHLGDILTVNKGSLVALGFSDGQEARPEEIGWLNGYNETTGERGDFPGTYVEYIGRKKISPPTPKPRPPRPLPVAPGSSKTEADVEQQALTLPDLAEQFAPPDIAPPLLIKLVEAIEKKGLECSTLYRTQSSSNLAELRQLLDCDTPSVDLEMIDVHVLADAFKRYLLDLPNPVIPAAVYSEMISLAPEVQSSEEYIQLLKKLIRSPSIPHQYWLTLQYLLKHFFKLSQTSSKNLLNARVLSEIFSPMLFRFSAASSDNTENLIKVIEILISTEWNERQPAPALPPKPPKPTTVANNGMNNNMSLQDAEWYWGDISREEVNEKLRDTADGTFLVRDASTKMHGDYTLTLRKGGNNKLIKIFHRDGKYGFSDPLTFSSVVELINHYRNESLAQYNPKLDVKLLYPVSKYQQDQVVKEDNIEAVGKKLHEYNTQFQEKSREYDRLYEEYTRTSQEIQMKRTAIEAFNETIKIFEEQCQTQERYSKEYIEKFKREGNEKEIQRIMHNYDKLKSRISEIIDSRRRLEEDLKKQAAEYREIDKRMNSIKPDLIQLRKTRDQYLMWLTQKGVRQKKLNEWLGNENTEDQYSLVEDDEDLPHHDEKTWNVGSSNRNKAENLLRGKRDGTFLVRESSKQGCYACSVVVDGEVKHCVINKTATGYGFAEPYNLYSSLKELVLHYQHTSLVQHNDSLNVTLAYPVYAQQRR
As to the kind of experiment: In vitro PI3K enzyme assay (AlphaScreen), Test (a). In kind it is biochemical. The settings on record: read-out: IC50 versus p110α Type Ia human PI3K. The text has this:
(a) In Vitro PI3K Enzyme Assay
The assay used AlphaScreen technology (Gray et al., Analytical Biochemistry, 2003, 313: 234-245) to determine the ability of test compounds to inhibit phosphorylation by recombinant Type I PI3K enzymes of the lipid PI(4,5)P2.
DNA fragments encoding human PI3K catalytic and regulatory subunits were isolated from cDNA libraries using standard molecular biology and PCR cloning techniques. The selected DNA fragments were used to generate baculovirus expression vectors. In particular, full length DNA of each of the p110α, p110β and p110δ Type Ia human PI3K p110 isoforms (EMBL Accession Nos. HSU79143, S67334, Y10055 for p110α, p110β and p110δ respectively) were sub-cloned into a pDEST10 vector (Invitrogen Limited, Fountain Drive, Paisley, UK). The vector is a Gateway-adapted version of Fastbac1 containing a 6-His epitope tag. […]
Biotinylated-DiC8-PI(3,4,5)P3 (50 nM; Cell Signals Inc., Catalogue No. 107), recombinant purified GST-Grp1 PH protein (2.5 μM) and AlphaScreen Anti-GST donor and acceptor beads (100 ng; Packard Bioscience Limited, Station Road, Pangbourne, Berkshire, UK, Catalogue No. 6760603M) were added and the assay plates were left for about 5 to 20 hours at room temperature in the dark. The resultant signals arising from laser light excitation at 680 nm were read using a Packard AlphaQuest instrument. […]
(Bead proximity is the source of the signal in Alpha formats.)

Assay [2] relates to phosphorylation of Serine 473 in Akt. Description: In vitro phospho-Ser473 Akt assay in MDA-MB-468 cells, Test (c). It is filed as cell-based. The settings on record: Homo sapiens, read-out: IC50, inhibition of phosphorylation of Serine 473 in Akt. The protocol: (c) In Vitro Phospho-Ser473 Akt Assay
This assay determines the ability of test compounds to inhibit phosphorylation of Serine 473 in Akt as assessed using Acumen Explorer technology (TTP LabTech Limited, Royston, Herts, SG8 6EE, UK), a plate reader that can be used to rapidly quantitate features of images generated by laser-scanning.
A MDA-MB-468 human breast adenocarcinoma cell line (LGC Promochem, Teddington, Middlesex, UK, Catalogue No. HTB-132) was routinely maintained at 37° C. with 5% CO2 up to a confluency of 70-90% in DMEM containing 10% FCS and 1% L-glutamine.
For the assay, the cells were detached from the culture flask using ‘Accutase’ (Innovative Cell Technologies Inc., San Diego, Calif., USA; Catalogue No. AT104) using standard tissue culture methods and resuspended in media to give 5.5×10^4 cells per ml. Aliquots (90 μl) were seeded into each of the inner 60 wells of a black ‘Costar’ 96-well plate (Corning Inc., NY, USA; Catalogue No. 3904) to give a density of ˜5000 cells per well. Aliquots (90 μl) of culture media were placed in the outer wells to prevent edge effects. [An alternative cell handling procedure involved the maintenance of the cells in a ‘SelecT’ robotic device (The Automation Partnership, Royston, Herts SG8 5WY, UK). Cells were resuspended in media to give 5×10^4 cells per ml. […]

As to `O=C(NC1CCN(c2cc(N3CCOCC3)nc(-n3c(C(F)F)nc4ccccc43)n2)CC1)[C@@H]1CCCN1` [Example 3, 2-(2-difluoromethylbenzimidazol-1-yl)-6-morpholino-4-(4-prolylaminopiperidin-1-yl)pyrimidine], the values for the IC50 in assay [1] and in assay [2] were around 400 nM and around 100 nM, respectively.
Taken in the same sequence, the figures for `NCCC1CCN(c2cc(N3CCOCC3)nc(-n3c(C(F)F)nc4ccccc43)n2)CC1` [Example 1, 4-[4-(2-aminoethyl)piperidin-1-yl]-2-(2-difluoromethylbenzimidazol-1-yl)-6-morpholinopyrimidine] were around 200 nM and around 10 nM.

In general, IC50 refers to the concentration that inhibits the measured activity by half.
